Data from the NIST ThermoML archive (doi:10.1021/acs.jced.6b00458).

Assay: mn = molality of the nth substance listed, in mol/kg
Details: 100 kPa, Liquid, Vibrating tube method

[Cl-].[Na+] [sodium chloride] + O
mass density [kg/m3]
Details	m1 = 0.1	m1 = 0.2	m1 = 0.3	m1 = 0.4	m1 = 0.5	m1 = 0.6
293.15 K	1002.42	1006.57	1010.63	1014.73	1018.78	1022.6
298.15 K	1001.21	1005.31	1009.33	1013.38	–	1021.15
303.15 K	999.767	1003.83	1007.8	1011.82	1015.77	–
308.15 K	998.116	1002.14	1006.08	1010.07	–	1017.71
313.15 K	996.272	1000.27	1004.18	1008.14	1012.04	1015.73
